According to US20150004134A1, “TREATMENT OF CANCER WITH HETEROCYCLIC INHIBITORS OF GLUTAMINASE” (Calithera Biosciences, Inc., priority 2012, published 2015):
Read-outs that look alike come from different tables or passages of the source.

Test system: P493-6 (myc "on") cells
Experiment: Cell Proliferation Assay
Format: cell-based
Outline: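 P493-6 cells with myc on, 10,000 per well in RPMI/10% FBS, exposed to serially diluted compound (0.5% DMSO final) for 72 h at 37 °C, 5% CO2. Antiproliferative effect read by Cell Titer Glo luminescence or Viacount FACS viability count.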

[1] = P493-6, 72 h, read-out: Cell prolif P493 72 h IC50, P493-6 cells, 72 h

SMILES | IC50 [1] [µM] | other results
CC(C)(C)OC(=O)Nc1cccc(CC(=O)Nc2nnc(CCCCc3ccc(NC(=O)Cc4ccccc4)nn3)s2)c1 [Compound 399] | 0.026 | 
O=C(Cc1ccccc1)Nc1ccc(CCCCc2nnc(NC(=O)NC3CCCC3)s2)nn1 [Compound 403] | 0.12 | 
O=C(Cc1ccccc1)Nc1nnc(CCCCc2ccc(NC(=O)NCc3ccccc3)nn2)s1 [Compound 405] | 0.67 | 
NCc1ccc(CC(=O)Nc2nnc(CCCCc3ccc(NC(=O)Cc4ccccc4)nn3)s2)cc1 [Compound 407] | 0.044 | 
Nc1cccc(CC(=O)Nc2nnc(CCCCc3ccc(NC(=O)Cc4ccccc4)nn3)s2)c1 [Compound 409] | 0.037 | 
Nc1ccc(CCCCc2nnc(NC(=O)C(O)c3cccc(Cl)c3)s2)nn1 (centres unmarked) [Compound 411] | 0.74 | 
O=C(Cc1ccccc1)Nc1ccc(CCCCc2nnc(NC(=O)C(O)c3cccc(Br)c3)s2)nn1 (centres unmarked) [Compound 415] | 0.018 | 
Cc1cccc(CNC(=O)Nc2nnc(CCCCc3nnc(NC(=O)Cc4ccccc4)s3)s2)c1 [Compound 417] | 0.32 | 
CCNC(=O)Nc1ccc(CCCCc2nnc(NC(=O)Cc3cccc(CNC(=O)OC(C)(C)C)c3)s2)nn1 [Compound 420] | 0.07 | 
CC(C)(C)OC(=O)NCc1cccc(CC(=O)Nc2nnc(CCCCc3ccc(NC(=O)C(O)c4cccc(Cl)c4)nn3)s2)c1 (centres unmarked) [Compound 422] | 0.006 | 
CC(=O)Nc1ccc(CC(=O)Nc2nnc(CCCCc3ccc(NC(=O)Cc4ccccc4)nn3)s2)cc1 [Compound 426] | 0.033 | 
O=C(Cc1ccccc1)Nc1ccc(CCCCc2nnc(NC(=O)Cc3cccc(OCCO)c3)s2)nn1 [Compound 427] | 0.027 | 
COCCOc1cccc(CC(=O)Nc2nnc(CCCCc3ccc(NC(=O)Cc4ccccc4)nn3)s2)c1 [Compound 428] | 0.019 | 
O=C(Cc1ccccc1)Nc1ccc(CCCCc2nnc(NC(=O)Cc3cccc(CNC(=O)c4ccccc4)c3)s2)nn1 [Compound 432] | 0.004 | 
O=C(Cc1ccccc1)NCc1cccc(CC(=O)Nc2nnc(CCCCc3ccc(NC(=O)Cc4ccccc4)nn3)s2)c1 [Compound 435] | 0.006 | 
NCc1cccc(CC(=O)Nc2nnc(CCCCc3nnc(NC(=O)Cc4ccccc4)s3)s2)c1 [Compound 437] | 0.072 | 
CC(C)NC(=O)Nc1nnc(CCCCc2nnc(NC(=O)Cc3ccccc3)s2)s1 [Compound 438] | 0.88 | 
CCCC(=O)OC(C(=O)Nc1nnc(CCCCc2ccc(NC(=O)Cc3ccccc3)nn2)s1)c1cccc(Cl)c1 (centres unmarked) [Compound 439] |  | IC50 (read-out: Cell prolif P493 72 h IC50, P493-6 cells, 72 h): 0.056 µM
O=C(CN1CCOCC1)NCc1ccc(CC(=O)Nc2nnc(CCCCc3ccc(NC(=O)Cc4ccccc4)nn3)s2)cc1 [Compound 442] | 0.025 | 
O=C(Nc1ccc(CCCCc2nnc(NC(=O)C(O)c3cccc(Cl)c3)s2)nn1)C(O)c1cccc(Cl)c1 (centres unmarked) [Compound 446] | 0.15 | 
O=C(Cc1cccc(Cl)c1)Nc1ccc(CCCCc2nnc(NC(=O)C(O)c3cccc(Cl)c3)s2)nn1 (centres unmarked) [Compound 448] | 0.051 | 
CC(=O)NCCc1cccc(CC(=O)Nc2nnc(CCCCc3ccc(NC(=O)Cc4ccccc4)nn3)s2)c1 [Compound 454] | 0.13 | 
O=C(Cc1ccccc1)Nc1ccc(CCCCc2nnc(NC(=O)Cc3cccc(CNC(=O)C(F)(F)F)c3)s2)nn1 [Compound 458] | 0.013 | 

SMILES | IC50 [1] [µM] | other results
CC(=O)NCc1cccc(CC(=O)Nc2nnc(CCCCc3ccc(NC(C)=O)nn3)s2)c1 [Compound 459] | 0.57 | 
CC(=O)Nc1ccc(CCCCc2nnc(NC(=O)Cc3cccc(CNC(=O)CC(C)C)c3)s2)nn1 [Compound 461] | 0.062 | 
CC(C)(C)OC(=O)NCc1ccccc1CC(=O)Nc1nnc(CCCCc2ccc(NC(=O)Cc3ccccc3)nn2)s1 [Compound 464] | 0.059 | 
COc1cccc(CC(=O)Nc2ccc(CCCCc3nnc(NC(=O)C(O)c4cccc(Cl)c4)s3)nn2)c1 (centres unmarked) [Compound 467] | 0.047 | 
CC(C(=O)Nc1ccc(CCCCc2nnc(NC(=O)C(O)c3cccc(Cl)c3)s2)nn1)c1ccccc1 (centres unmarked) [Compound 468] | 0.27 | 
CN(C)C(=O)Cc1cccc(CC(=O)Nc2nnc(CCCCc3ccc(NC(=O)Cc4ccccc4)nn3)s2)c1 [Compound 472] | 0.024 | 
O=C(Cc1ccccc1)Nc1ccc(CCCCc2nnc(NC(=O)Cc3cccc(CC(=O)N4CCC(F)(F)CC4)c3)s2)nn1 [Compound 474] | 0.004 | 
O=C(Cc1ccccc1)Nc1ccc(CCCCc2nnc(NC(=O)Cc3cccc(CN4CCCCC4=O)c3)s2)nn1 [Compound 476] | 0.012 | 
C[C@@](O)(C(=O)NCc1cccc(CC(=O)Nc2nnc(CCCCc3ccc(NC(=O)Cc4ccccc4)nn3)s2)c1)C(F)(F)F [Compound 477] | 0.015 | 
CN(C)CC(=O)Nc1ccc(CCCCc2nnc(NC(=O)Cc3cccc(CNC(=O)OC(C)(C)C)c3)s2)nn1 [Compound 478] | 0.046 | 
O=C(Cc1ccccc1)Nc1ccc(CCCCc2nnc(NC(=O)Cc3cccc(CN4CCCC4=O)c3)s2)nn1 [Compound 479] | 0.03 | 
O=C(Cc1ccccc1)Nc1ccc(CCCCc2nnc(NC(=O)Cc3cccc(OCc4ccccn4)c3)s2)nn1 [Compound 480] | 6.3 | 
CC(C(=O)Nc1nnc(CCCCc2ccc(NC(=O)Cc3cccc(CNC(=O)OC(C)(C)C)c3)nn2)s1)c1ccccc1 (centres unmarked) [Compound 489] | 0.023 | 
CC(=O)Nc1nnc(CCCCc2ccc(NC(=O)Cc3cccc(CNC(=O)OC(C)(C)C)c3)nn2)s1 [Compound 491] | 0.023 | 
CC(C)(C)OC(=O)NCc1cc(CC(=O)Nc2nnc(CCCCc3ccc(NC(=O)Cc4ccccc4)nn3)s2)ccc1F [Compound 492] | 0.014 | 
CC(C)(C)OC(=O)N1CCN(Cc2cc(CC(=O)Nc3nnc(CCCCc4ccc(NC(=O)Cc5ccccc5)nn4)s3)ccc2F)CC1 [Compound 493] | 0.057 | 
O=C(Cc1ccccc1)Nc1ccc(CCCCc2nnc(NC(=O)Cc3ccc(F)c(CN4CCNCC4)c3)s2)nn1 [Compound 494] | 0.58 | 
CCCCNC(=O)Cc1cccc(CC(=O)Nc2nnc(CCCCc3ccc(NC(=O)Cc4ccccc4)nn3)s2)c1 [Compound 496] | 0.017 | 
O=C(Cc1ccccc1)Nc1ccc(CCCCc2nnc(NC(=O)C(O)c3ccc(-c4ccccc4)cc3OCCO)s2)nn1 (centres unmarked) [Compound 504] | 0.12 | 
CC(C)(C)OC(=O)NCc1cccc(CC(=O)Nc2nnc(CCCCc3ccc(NC(=O)C(O)(CO)c4ccccc4)nn3)s2)c1 (centres unmarked) [Compound 507] | 0.041 | 
COC(C(=O)Nc1ccc(CCCCc2nnc(NC(=O)Cc3cccc(CNC(=O)OC(C)(C)C)c3)s2)nn1)c1ccccc1 (centres unmarked) [Compound 508] | 0.02 | 
COC(C(=O)Nc1nnc(CCCCc2ccc(NC(=O)Cc3cccc(CNC(=O)OC(C)(C)C)c3)nn2)s1)c1ccccc1 (centres unmarked) [Compound 509] | 0.009 | 
O=C(Cc1ccccc1)Nc1ccc(CCCCc2nnc(NC(=O)CC3=CN4CCCN=C4S3)s2)nn1 [Compound 511] | 1.1 | 

SMILES | IC50 [1] [µM] | other results
O=C(Cc1ccccc1)Nc1ccc(CCCCc2nnc(NC(=O)Cc3cccc4[nH]ncc34)s2)nn1 [Compound 512] | 0.046 | 
COc1cc(CC(=O)Nc2nnc(CCCCc3ccc(NC(=O)Cc4ccccc4)nn3)s2)ccc1F [Compound 515] | 0.059 | 
O=C(Cc1ccccc1)Nc1nnc(CCCCc2nnc(NC(=O)C(O)c3cccc(Cl)c3)s2)s1 (centres unmarked) [Compound 527] |  | IC50 (P493-6, 72 h, read-out: Cell prolif P493 72 h IC50, P493 cells, 72 h): 0.098 µM
CC(=O)N1CCN(Cc2cc(CC(=O)Nc3nnc(CCCCc4ccc(NC(=O)Cc5ccccc5)nn4)s3)ccc2F)CC1 [Compound 528] | 0.044 | 
CC(C)(C)OC(=O)NCc1cccc(CC(=O)Nc2nnc(CCCCc3ccc(NC(=O)C4(C)COC(C)(C)OC4)nn3)s2)c1 [Compound 529] | 0.16 | 
COc1ccccc1CC(=O)Nc1nnc(CCCCc2ccc(NC(=O)Cc3ccccc3Cl)nn2)s1 [Compound 531] | 0.042 | 
O=C(Cc1ccccc1F)Nc1ccc(CCCCc2nnc(NC(=O)Cc3ccccc3F)s2)nn1 [Compound 534] | 0.044 | 
Cc1ccccc1CC(=O)Nc1nnc(CCCCc2ccc(NC(=O)Cc3ccccc3Cl)nn2)s1 [Compound 535] | 0.09 | 
Cc1ccccc1CC(=O)Nc1nnc(CCCCc2ccc(NC(=O)Cc3ccccc3F)nn2)s1 [Compound 536] | 0.071 | 
COc1cc(CC(=O)Nc2ccc(CCCCc3nnc(NC(=O)Cc4ccccc4)s3)nn2)ccc1F [Compound 537] | 0.076 | 
CC(NC(=O)OC(C)(C)C)c1cccc(CC(=O)Nc2nnc(CCCCc3ccc(NC(=O)Cc4ccccc4)nn3)s2)c1 (centres unmarked) [Compound 541] | 0.006 | 
O=C(Cc1ccccc1)Nc1ccc(CCCCc2nnc(NC(=O)Cc3cccc(Cl)c3F)s2)nn1 [Compound 545] | 0.046 | 
CCOc1ccc(CC(=O)Nc2nnc(CCCCc3ccc(NC(=O)Cc4ccccc4)nn3)s2)cc1OC [Compound 547] | 0.031 | 
CCCC(=O)OCN(C(=O)Cc1cccc(CNC(=O)OC(C)(C)C)c1)c1nnc(CCCCc2ccc(NC(=O)Cc3ccccc3)nn2)s1 [Compound 552] | 0.005 | 
COc1cc(CC(=O)Nc2nnc(CCCCc3ccc(NC(=O)Cc4ccccc4)nn3)s2)ccc1O [Compound 554] | 0.172 | 
CC(C)Cc1ccc(C(C)C(=O)Nc2nnc(CCCCc3ccc(NC(=O)Cc4ccccc4)nn3)s2)cc1 (centres unmarked) [Compound 557] | 0.12 | 
CCCOc1ccc(C(O)C(=O)Nc2nnc(CCCCc3ccc(NC(=O)Cc4ccccc4)nn3)s2)cc1 (centres unmarked) [Compound 558] | 0.028 | 
CC(N)c1cccc(CC(=O)Nc2ccc(CCCCc3nnc(NC(=O)Cc4ccccc4)s3)nn2)c1 (centres unmarked) [Compound 560] | 0.037 | 
O=C(Cc1ccccc1F)Nc1ccc(CCCCc2nnc(NC(=O)Cc3ccccc3Cl)s2)nn1 [Compound 566] | 0.015 | 
CCCC(=O)OCN(C(=O)C(CO)c1cccc(CNC(=O)OC(C)(C)C)c1)c1nnc(CCCCc2ccc(NC(=O)Cc3ccccc3)nn2)s1 (centres unmarked) [Compound 567] | 0.021 | 
CC(C(=O)Nc1nnc(CCCCc2ccc(NC(=O)Cc3ccccc3)nn2)s1)c1ccc(F)c(CNC(=O)OC(C)(C)C)c1 (centres unmarked) [Compound 568] | 0.028 | 
CN(Cc1cc(CC(=O)Nc2nnc(CCCCc3ccc(NC(=O)Cc4ccccc4)nn3)s2)ccc1F)C(=O)OC(C)(C)C [Compound 569] | 0.011 | 
